Usually IC50 stands for the concentration that gives 50% inhibition.

Like-named read-outs stand apart in the source and are kept apart here.

Among the data in US20230113037A1 (Bayer Aktiengesellschaft, priority 2019, published 2023) are IC50 values, retold here.

Test [1] deals with T1, AHR (Homo sapiens, UniProt P35869).
T1 construct: U87 MG glioblastoma cells (ATCC #HTB-14) endogenously expressing AHR; endogenous in cells; host or cells: U87 MG glioblastoma cells (ATCC #HTB-14)
T1 sequence (P35869 11-848): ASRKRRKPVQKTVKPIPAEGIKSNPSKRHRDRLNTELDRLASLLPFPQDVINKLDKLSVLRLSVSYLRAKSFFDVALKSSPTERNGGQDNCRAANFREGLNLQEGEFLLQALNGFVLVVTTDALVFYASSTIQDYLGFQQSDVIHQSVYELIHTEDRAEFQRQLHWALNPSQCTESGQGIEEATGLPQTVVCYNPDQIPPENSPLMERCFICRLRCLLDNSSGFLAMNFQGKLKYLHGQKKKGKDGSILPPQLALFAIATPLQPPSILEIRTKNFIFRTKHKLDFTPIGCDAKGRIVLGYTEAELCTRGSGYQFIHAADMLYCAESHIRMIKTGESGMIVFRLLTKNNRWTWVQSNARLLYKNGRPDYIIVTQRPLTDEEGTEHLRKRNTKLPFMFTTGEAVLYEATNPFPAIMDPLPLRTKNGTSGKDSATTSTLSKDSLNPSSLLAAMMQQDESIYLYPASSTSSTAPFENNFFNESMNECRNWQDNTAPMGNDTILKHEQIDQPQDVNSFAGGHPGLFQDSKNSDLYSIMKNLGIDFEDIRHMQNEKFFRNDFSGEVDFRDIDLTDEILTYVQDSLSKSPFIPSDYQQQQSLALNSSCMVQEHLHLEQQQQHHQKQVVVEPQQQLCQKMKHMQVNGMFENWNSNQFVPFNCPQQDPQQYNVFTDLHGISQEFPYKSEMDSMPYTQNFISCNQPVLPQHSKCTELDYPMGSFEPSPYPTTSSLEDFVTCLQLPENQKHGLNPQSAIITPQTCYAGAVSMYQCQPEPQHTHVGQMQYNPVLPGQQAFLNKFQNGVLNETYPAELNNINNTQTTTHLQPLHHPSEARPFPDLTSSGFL
Kind of test: In vitro assay 1: antagonism in human cell line (AHR transactivation, firefly luciferase reporter, kynurenic acid prestimulated). The note with it: AHR Antagonism Human IC50 [M]. In kind it is cell-based. In outline:
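U87 MG + DRE-firefly/constitutive-Renilla stable reporters; kynurenic acid prestim; dual-luc read; Renilla = tox; normalized vs pos/neg controls (pos: 150 μM KYNA + 5 μM staurosporine).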

Test [2] deals with T2, AHR (Mus musculus, UniProt P30561).
T2 sequence (P30561 1-848 P471L/N533S/M589L): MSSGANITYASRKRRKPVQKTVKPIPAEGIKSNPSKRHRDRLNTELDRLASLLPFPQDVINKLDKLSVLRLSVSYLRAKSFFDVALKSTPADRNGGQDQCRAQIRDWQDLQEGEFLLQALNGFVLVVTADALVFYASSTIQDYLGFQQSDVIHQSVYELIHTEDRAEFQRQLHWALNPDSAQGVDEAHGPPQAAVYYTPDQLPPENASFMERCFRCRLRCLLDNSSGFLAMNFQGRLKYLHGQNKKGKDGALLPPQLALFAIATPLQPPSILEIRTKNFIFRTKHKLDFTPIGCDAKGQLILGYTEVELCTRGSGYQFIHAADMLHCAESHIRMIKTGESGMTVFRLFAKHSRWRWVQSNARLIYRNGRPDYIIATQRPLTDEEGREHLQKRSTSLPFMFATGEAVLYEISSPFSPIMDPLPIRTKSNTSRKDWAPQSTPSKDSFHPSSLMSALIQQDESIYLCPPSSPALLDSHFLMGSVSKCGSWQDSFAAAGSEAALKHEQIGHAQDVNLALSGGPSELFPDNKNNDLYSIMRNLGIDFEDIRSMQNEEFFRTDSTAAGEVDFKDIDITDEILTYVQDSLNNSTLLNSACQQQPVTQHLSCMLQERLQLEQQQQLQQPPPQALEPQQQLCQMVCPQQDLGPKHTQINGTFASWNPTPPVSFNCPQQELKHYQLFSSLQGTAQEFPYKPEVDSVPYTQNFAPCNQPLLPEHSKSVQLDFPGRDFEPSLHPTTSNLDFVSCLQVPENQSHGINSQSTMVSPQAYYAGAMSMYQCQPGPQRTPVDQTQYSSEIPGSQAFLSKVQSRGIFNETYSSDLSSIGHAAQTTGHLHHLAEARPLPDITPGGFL
Kind of test: In vitro assay 3: antagonism in mouse cell line (AHR transactivation, firefly luciferase reporter, kynurenic acid prestimulated). In kind it is cell-based. The gist of the method:
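Cells were first stimulated with kynurenic acid, then exposed to test compound, after which firefly luciferase from a DRE-containing AHR reporter was read out. Signal was scaled between positive and negative controls. Cells not given kynurenic acid provided the inhibition reference.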
A general note: In a reporter assay the amount or activity of a reporter protein is the signal.

Where [3] appears, read: mouse Hepa 1c1c7 cells, 200 μM kynurenic acid, 20 hours, read-out: AHR Antagonism Mouse IC50.
[4] abbreviates: Hepa 1c1c7 cells, 200 μM kynurenic acid, 20 hours, firefly luciferase reporter, read-out: AHR Antagonism Mouse IC50.

For `COc1ccc(-c2nc3c4cccc(OCCC(F)(F)F)c4nc(N[C@@H]4CCCCNC4=O)n3n2)cc1` [Example 670, (3R)-3-{[2-(4-methoxyphenyl)-7-(3,3,3-trifluoropropoxy)[1,2,4]triazolo[1,5-c]quinazolin-5-yl]amino}azepan-2-one], the 50% inhibitory concentration (IC50) is 2.78e-07 M against AHR [1] and 160 nM at AHR [2] (setting [3]).
Regarding `CC[C@@H](Nc1nc2ccccc2c2nc(-c3ccccc3)nn12)C(N)=O` [Example 4, (2R)-2-[(2-phenyl[1,2,4]triazolo[1,5-c]quinazolin-5-yl)amino]butanamide], the values for the IC50 at AHR [1] and on AHR [2] (setting [3]) were 1.68e-09 M and 0.91 nM, respectively.
In the case of `CCS(=O)(=O)c1cccc2c1nc(N[C@@H]1CNCCNC1=O)n1nc(-c3ccc(OC)cc3)nc21` [Example 940, (6R)-6-{[7-(ethanesulfonyl)-2-(4-methoxyphenyl)[1,2,4]triazolo[1,5-c]quinazolin-5-yl]amino}-1,4-diazepan-5-one], the half-maximal inhibitory concentration (IC50) at AHR [1] (firefly luciferase reporter) was found to be 1.79e-08 M; at AHR [2] (setting [4]), 57 nM.
Taken in the same sequence, the figures for `COc1ccc(-c2nc3c4cccc(N5CCCC5=O)c4nc(N[C@@H]4CCCCNC4=O)n3n2)cc1` [Example 1001, (3R)-3-{[2-(4-methoxyphenyl)-7-(2-oxopyrrolidin-1-yl)[1,2,4]triazolo[1,5-c]quinazolin-5-yl]amino}azepan-2-one] were 3.54e-07 M and 5040 nM.
As to `Cc1cc2c(cc1C(F)F)nc(N[C@@H]1CCCCNC1=O)n1nc(-c3cnn(C)c3)nc21` [Example 405, (3R)-3-{[8-(difluoromethyl)-9-methyl-2-(1-methyl-1H-pyrazol-4-yl)[1,2,4]triazolo[1,5-c]quinazolin-5-yl]amino}azepan-2-one], the IC50 came out at 3.41e-07 M against AHR [1] and 792 nM at AHR [2] (setting [3]).
As for `Cn1cc(-c2nc3c4c(F)cccc4nc(N[C@@H]4CCCCNC4=O)n3n2)cn1` [Example 244, (3R)-3-{[10-fluoro-2-(1-methyl-1H-pyrazol-4-yl)[1,2,4]triazolo[1,5-c]quinazolin-5-yl]amino}azepan-2-one], the IC50 on AHR [1] was 2.17e-08 M; at AHR [2] (setting [3]), 66.7 nM.
On to `COCc1cccc2c1nc(N[C@@H]1CCCCNC1=O)n1nc(-c3cnn(C)c3)nc21` [Example 1004, (3R)-3-{[7-(methoxymethyl)-2-(1-methyl-1H-pyrazol-4-yl)[1,2,4]triazolo[1,5-c]quinazolin-5-yl]amino}azepan-2-one], for which the IC50 against AHR [1] (firefly luciferase reporter) is 1.9e-08 M; at AHR [2] (setting [4]), 266 nM.
With `COc1cccc(-c2nc3c4c(F)cccc4nc(N[C@H](C)C(N)=O)n3n2)c1` [Example 184, N^2-[10-fluoro-2-(3-methoxyphenyl)[1,2,4]triazolo[1,5-c]quinazolin-5-yl]-D-alaninamide], the values for the concentration for half-maximal inhibition (IC50) against AHR [1] and at AHR [2] (setting [3]) were 9.66e-09 M and 62.8 nM, respectively.
Consider `COc1ccc(-c2nc3c4ccccc4nc(N[C@@H]4CCCCNC4=O)n3n2)cc1C` [Example 627, (3R)-3-{[2-(4-methoxy-3-methylphenyl)[1,2,4]triazolo[1,5-c]quinazolin-5-yl]amino}azepan-2-one], for which the values for the half-inhibitory concentration (IC50) against AHR [1] and on AHR [2] (setting [3]) were 6.68e-10 M and 0.326 nM, respectively.
Regarding `COc1ccc(-c2nc3c4cccc(OC)c4nc(N[C@@H]4CNCCNC4=O)n3n2)cc1` [Example 265, (6R)-6-{[7-methoxy-2-(4-methoxyphenyl)[1,2,4]triazolo[1,5-c]quinazolin-5-yl]amino}-1,4-diazepan-5-one], the IC50 was 2.38e-07 M at AHR [1] and 373 nM on AHR [2] (setting [3]).
Taken in the same sequence, the figures for `COc1ccc(-c2nc3c4ccccc4nc(NC4CCCNC4=O)n3n2)cc1` (single isomer, unassigned) [Example 38, 3-{[2-(4-methoxyphenyl)[1,2,4]triazolo[1,5-c]quinazolin-5-yl]amino}piperidin-2-one] were 1.94e-08 M and 69.8 nM.
Regarding `O=C1NCCNC[C@H]1Nc1nc2ccccc2c2nc(-c3cccc(F)c3)nn12` [Example 261, (6R)-6-{[2-(3-fluorophenyl)[1,2,4]triazolo[1,5-c]quinazolin-5-yl]amino}-1,4-diazepan-5-one], the figures for the IC50 against AHR [1] and on AHR [2] (setting [3]) were 7.39e-08 M and 46.6 nM, respectively.
As for `O=C1NCCNC[C@H]1Nc1nc2ccccc2c2nc(-c3ccccc3C(F)(F)F)nn12` [Example 262, (6R)-6-({2-[2-(trifluoromethyl)phenyl][1,2,4]triazolo[1,5-c]quinazolin-5-yl}amino)-1,4-diazepan-5-one], the IC50 at AHR [1] is 1.37e-06 M; on AHR [2] (setting [3]) it was 85.7 nM.
As for `CN(C)c1ccc(-c2nc3c4ccccc4nc(N[C@@H]4CCCCNC4=O)n3n2)cc1` [Example 128, (3R)-3-({2-[4-(dimethylamino)phenyl][1,2,4]triazolo[1,5-c]quinazolin-5-yl}amino)azepan-2-one], the results for the IC50 on AHR [1] and at AHR [2] (setting [3]) were 1.5e-09 M and 0.316 nM, respectively.
Turning to `O=C1NCCNC[C@H]1Nc1nc2c(Br)cccc2c2nc(-c3cnn(C4CC4)c3)nn12` [Example 952, (6R)-6-{[7-bromo-2-(1-cyclopropyl-1H-pyrazol-4-yl)[1,2,4]triazolo[1,5-c]quinazolin-5-yl]amino}-1,4-diazepan-5-one], the half-inhibitory concentration (IC50) came to 3.97e-09 M against AHR [1] (firefly luciferase reporter) and 6.74 nM at AHR [2] (read-out: AHR Antagonism Mouse IC50, Hepa 1c1c7 cells, 200 μM kynurenic acid, 20 hours, firefly luciferase reporter).
As for `COc1ccc(-c2nc3c4ccc(C)cc4nc(N[C@@H]4CNCCNC4=O)n3n2)cc1` [Example 274, (6R)-6-{[2-(4-methoxyphenyl)-8-methyl[1,2,4]triazolo[1,5-c]quinazolin-5-yl]amino}-1,4-diazepan-5-one], the values for the IC50 against AHR [1] and at AHR [2] (setting [3]) were 1.09e-06 M and 2150 nM, respectively.
For the molecule `Cc1nc(-c2nc3c4ccccc4nc(N[C@@H]4CCCCNC4=O)n3n2)co1` [Example 70, (3R)-3-{[2-(2-methyl-1,3-oxazol-4-yl)[1,2,4]triazolo[1,5-c]quinazolin-5-yl]amino}azepan-2-one], the 50% inhibitory concentration (IC50) against AHR [1] is 2.44e-08 M; on AHR [2] (setting [3]), 51.7 nM.
`CCSc1cccc2c1nc(N[C@@H]1CNCCNC1=O)n1nc(-c3cnn(C)c3)nc21` [Example 938]: the values for the IC50 against AHR [1] (firefly luciferase reporter) and at AHR [2] (setting [4]) were 4.23e-07 M and 5550 nM, respectively.
With `O=C1NCCNC[C@H]1Nc1nc2c(Br)cccc2c2nc(-c3cnn(C(F)F)c3)nn12` [Example 978, (6R)-6-({7-bromo-2-[1-(difluoromethyl)-1H-pyrazol-4-yl][1,2,4]triazolo[1,5-c]quinazolin-5-yl}amino)-1,4-diazepan-5-one], the IC50 on AHR [1] (firefly luciferase reporter) came out at 2.03e-09 M; at AHR [2] (setting [4]), 1.34 nM.
The corresponding values for `COC(=O)N1CCN(C(=O)[C@@H](C)Nc2nc3c(Br)cccc3c3nc(-c4ccc(OC)cc4)nn23)CC1` [Example 894, methyl 4-{N-[7-bromo-2-(4-methoxyphenyl)[1,2,4]triazolo[1,5-c]quinazolin-5-yl]-D-alanyl}piperazine-1-carboxylate] are 2.01e-09 M and 1.33 nM.
